Reference: ChEMBL document CHEMBL4834478, “Synthesis and biological evaluation of novel 1,4-benzodiazepin-3-one derivatives as potential antitumor agents against prostate cancer” (Bioorg Med Chem, 2021)
The source made the active and inactive calls. No cut-off for these calls is given here.

Legend:
[1] = Metabolic stability in human liver microsomes assessed as compound degradation at 10 uM measured after 30 mins by HPLC method; format: ADME, Microsome; conditions: read-out: Drug degradation
PC-3 [2] = experiment: Antiproliferative activity against human PC3 cells assessed as inhibition of cell growth measured after 72 hrs by MTT assay; format: functional
[3] = Metabolic stability in human liver microsomes assessed as compound degradation at 10 uM measured after 15 mins by HPLC method; format: ADME, Microsome; conditions: read-out: Drug degradation
OVCAR-3 [4] = experiment: Antiproliferative activity against human OVCAR-3 cells assessed as inhibition of cell proliferation at 2 uM measured after 48 hrs by MTT assay; format: functional, cell-based
LAPC4 = experiment: Antiproliferative activity against human LAPC4 cells assessed as inhibition of cell proliferation measured after 72 hrs by MTT assay; format: functional, cell-based
RPTEC = experiment: Cytotoxicity against human RPTEC cells assessed as inhibition of cell proliferation measured after 72 hrs by MTT assay; format: cell-based
PANC-1 [5] = experiment: Antiproliferative activity against human PANC-1 cells assessed as inhibition of cell proliferation at 15 uM measured after 48 hrs by MTT assay; format: functional, cell-based
LNCaP = experiment: Antiproliferative activity against human LNCaP cells assessed as inhibition of cell proliferation measured after 72 hrs by MTT assay; format: functional, cell-based
OVCAR-3 [6] = experiment: Antiproliferative activity against human OVCAR-3 cells assessed as inhibition of cell proliferation at 15 uM measured after 48 hrs by MTT assay; format: functional, cell-based
[7] = Toxicity in chick embryo assessed as embryo weight at 10 to 50 ug, iv measured after 7 days; format: organism-based, Gallus gallus; conditions: chicken, in vivo, 168 h, dose 10-50 µg, time 7 day
PC-3 [8] = experiment: Induction of apoptosis in human PC-3 cells assessed as increase in Caspase-3 activity using Z-Asp-Glu-Val-Asp-AMC peptide as substrate at 10 uM measured after 24 to 48 hrs by based flourimetric assay; format: functional, cell-based; conditions: time 24-48 hrs
PC-3 [9] = experiment: Antitumour activity against human PC-3 cells xenografted in chick chorioallantoic membrane assessed as inhibition of tumour growth at 10 ug, iv measured after 7 days; format: functional; conditions: dose 10 µg; time 7 day
PC-3 [10] = experiment: Antitumour activity against human PC-3 cells xenografted in chick chorioallantoic membrane assessed as inhibition of tumour growth at 50 ug, iv measured after 7 days; format: functional; conditions: dose 50 µg; time 7 day
DU-145 = experiment: Antiproliferative activity against human DU-145 cells assessed as inhibition of cell proliferation measured after 72 hrs by MTT assay; format: functional, cell-based
PANC-1 [11] = experiment: Antiproliferative activity against human PANC-1 cells assessed as inhibition of cell proliferation at 2 uM measured after 48 hrs by MTT assay; format: functional, cell-based
PC-3 [12] = experiment: Antiproliferative activity against human PC3 cells assessed as inhibition of cell proliferation at 2 uM measured after 48 hrs by MTT assay; format: functional, cell-based
PC-3 [13] = experiment: Antiproliferative activity against human PC3 cells assessed as cellular metabolic activity at 15 uM measured after 48 hrs by MTT assay; format: functional
PC-3 [14] = experiment: Antiproliferative activity against human PC3 cells assessed as inhibition of cell proliferation at 15 uM measured after 48 hrs by MTT assay; format: functional, cell-based

Compound	metabolised at 0.5 h, 10 µM [1]	GI50 (PC-3 [2])	metabolised at 0.25 h, 10 µM [3]	Activity (OVCAR-3 [4])	Activity (LAPC4)	Activity (RPTEC)	Activity (PANC-1 [5])	Activity (LNCaP)	Activity (OVCAR-3 [6])	Activity [7]	Activity (PC-3 [8])	TGI (PC-3 [9])	TGI (PC-3 [10])	Activity (DU-145)	Activity (PANC-1 [11])	Activity (PC-3 [12])	Activity (PC-3 [13])	Activity (PC-3 [14])
CC(C)(C)NC(=O)[C@H]1c2cc([N+](=O)[O-])ccc2N[C@@H](Cc2ccccc2)C(=O)N1Cc1ccccc1	41%	10.8 µM	26%	–	–	–	–	–	–	–	–	–	–	–	–	–	–	–
CC(C)(C)NC(=O)[C@@H]1c2cc([N+](=O)[O-])ccc2N[C@@H](Cc2ccccc2)C(=O)N1Cc1ccccc1	50%	7 µM	41%	–	–	–	–	–	–	–	–	–	–	–	–	–	–	–
CC(C)(C)NC(=O)C1c2cc([N+](=O)[O-])ccc2N[C@@H](Cc2ccccc2)C(=O)N1Cc1ccccc1 (mixture of isomers)	–	10.2 µM	–	inactive	inactive	Non-Toxic	inactive	inactive	Active	Non-Toxic	Active	45%	53%	inactive	inactive	inactive	30%	–
CC(C)C[C@@H]1Nc2ccc([N+](=O)[O-])cc2C(C(=O)NC(C)(C)C)N(Cc2ccc3c(c2)OCO3)C1=O (mixture of isomers)	–	–	–	inactive	–	–	inactive	–	Active	–	–	–	–	–	inactive	inactive	–	Active
CC(C)C[C@@H]1Nc2ccc([N+](=O)[O-])cc2C(C(=O)NC(C)(C)C)N(Cc2ccccc2)C1=O (mixture of isomers)	–	–	–	inactive	–	–	inactive	–	Active	–	–	–	–	–	inactive	inactive	–	Active
